# How the values were obtained:
# [1] = tested on: endogenous NAMPT in U2OS cells; assay: Cellular NAD+ modulation assay (NAD/NADH-Glo, U2OS cells); format: cell-based; conditions: Homo sapiens, 24 hours incubation with compound; for maximal fold induction: read-out: Cellular Emax
# In short: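 Endogenous NAMPT stimulation in U2OS cells treated with compound dilution series for 24 h at 37 °C. Cells lysed with DTAB base, acid-treated 15 min at 60 °C, neutralized, NAD+ read by NAD/NADH-Glo luminescence after 40 min at room temperature. EC50 and Emax (fold over DMSO) derived.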
# [2] = biological target: T1, human enzyme NAMPT (full length) (Homo sapiens, UniProt P43490); assay: NMN fluorescence biochemical assay (stimulation of NMN synthesis by NAMPT); conditions: for EC50: NMN synthesis by purified human NAMPT (100 nM), concentration giving half-maximal activation, read-out: Enzymatic EC50; for Enzymatic Emax: fold change of maximal activation compared to DMSO
# T1 construct: human enzyme NAMPT (full length)
# In short: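 Full-length human NAMPT (100 nM) was preincubated 15 min at 37 °C with compound in 50 mM Tris-HCl pH 7.5, 10 mM MgCl2, 2 mM DTT, then reacted 1 h at 37 °C with 50 μM NAM, 100 μM PRPP, 4 mM ATP (stated solution concentrations). NMN was derivatised with acetophenone/KOH then formic acid and read at Ex/Em 382/445 nm; EC50 and Emax (fold over DMSO) reported.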
# T1 sequence (P43490 whole entry): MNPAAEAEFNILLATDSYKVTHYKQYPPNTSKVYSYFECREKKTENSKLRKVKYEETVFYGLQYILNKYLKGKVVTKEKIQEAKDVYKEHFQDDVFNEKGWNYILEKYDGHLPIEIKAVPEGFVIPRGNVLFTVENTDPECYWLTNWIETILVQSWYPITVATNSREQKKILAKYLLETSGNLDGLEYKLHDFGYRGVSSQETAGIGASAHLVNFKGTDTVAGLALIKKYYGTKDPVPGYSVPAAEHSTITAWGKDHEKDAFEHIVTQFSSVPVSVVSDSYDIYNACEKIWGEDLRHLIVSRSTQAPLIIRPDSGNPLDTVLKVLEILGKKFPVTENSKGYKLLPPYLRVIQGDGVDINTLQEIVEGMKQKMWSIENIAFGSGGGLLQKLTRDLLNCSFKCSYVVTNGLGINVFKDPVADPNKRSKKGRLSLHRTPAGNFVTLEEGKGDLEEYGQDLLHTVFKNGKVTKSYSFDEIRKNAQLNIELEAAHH
Compound,EC50 [1] [nM],maximal fold induction [1],EC50 [2] [nM],Enzymatic Emax [2]
"O=C1c2ccccc2C(Cc2ccccc2C(F)(F)F)N1Cc1ccc2[nH]c(=O)oc2c1 (centres unmarked) [Compound 134, 6-((1-oxo-3-(2-(trifluoromethyl)benzyl)isoindolin-2-yl)methyl)benzo[d]oxazol-2(3H)-one]",500 to 5000,> 1.5,< 500,A (A>3)
"O=C1c2ccccc2C(Cc2cccnc2)N1Cc1ccc2[nH]c(=O)oc2c1 (centres unmarked) [Compound 137, 6-((1-oxo-3-(pyridin-3-ylmethyl)isoindolin-2-yl)methyl)benzo[d]oxazol-2(3H)-one]",< 500,> 1.5,500 to 5000,B (3≥B>2)
"O=C1c2ccccc2C(Cc2nccs2)N1Cc1ccc2[nH]c(=O)oc2c1 (centres unmarked) [Compound 140, 6-((1-oxo-3-(thiazol-2-ylmethyl)isoindolin-2-yl)methyl) benzo[d]oxazol-2(3H)-one]",500 to 5000,> 1.5,≥ 5000,A (A>3)
"O=c1[nH]c2ccc(Cn3c(=O)c4ccccc4n3Cc3ccccc3C(F)(F)F)cc2o1 [Compound 141, 6-((3-oxo-1-(2-(trifluoromethyl)benzyl)-1,3-dihydro-2H-indazol-2-yl)methyl)benzo[d]oxazol-2(3H)-one]",500 to 5000,> 1.5,500 to 5000,B (3≥B>2)
"COc1ccccc1CC1c2ccccc2C(=O)N1Cc1ccc2[nH]c(=O)oc2c1 (centres unmarked) [Compound 142, 6-((1-(2-methoxybenzyl)-3-oxoisoindolin-2-yl)methyl)benzo[d]oxazol-2(3H)-one]",500 to 5000,> 1.5,< 500,B (3≥B>2)
"CC1c2cc(CN3CCOCC3)ccc2C(=O)N1Cc1ccc2[nH]c(=O)oc2c1 (centres unmarked) [Compound 143, 6-((3-methyl-5-(morpholinomethyl)-1-oxoisoindolin-2-yl)methyl)benzo[d]oxazol-2(3H)-one]",500 to 5000,> 1.5,≥ 5000,A (A>3)
"O=C1c2ccccc2C(Cc2ccccc2F)N1Cc1ccc2[nH]c(=O)oc2c1 (centres unmarked) [Compound 146, 6-((1-(2-fluorobenzyl)-3-oxoisoindolin-2-yl)methyl)benzo[d]oxazol-2(3H)-one]",< 500,> 1.5,< 500,A (A>3)
"N#Cc1ccccc1CC1c2ccccc2C(=O)N1Cc1ccc2[nH]c(=O)oc2c1 (centres unmarked) [Compound 147, 2-((3-oxo-2-((2-oxo-2,3-dihydrobenzo[d]oxazol-6-yl)methyl)isoindolin-1-yl)methyl) benzonitrile]",< 500,> 1.5,< 500,A (A>3)
"N#Cc1ccc(CC2c3ccccc3C(=O)N2Cc2ccc3[nH]c(=O)oc3c2)cc1 (centres unmarked) [Compound 148, 4-((3-oxo-2-((2-oxo-2,3-dihydrobenzo[d]oxazol-6-yl)methyl)isoindolin-1-yl)methyl) benzonitrile]",500 to 5000,> 1.5,500 to 5000,B (3≥B>2)
"CC1c2cc(NC3CC4(COC4)C3)ccc2C(=O)N1Cc1ccc2[nH]c(=O)oc2c1 (centres unmarked) [Compound 149, 6-((5-((2-oxaspiro[3.3]heptan-6-yl)amino)-3-methyl-1-oxoisoindolin-2-yl)methyl)benzo[d]oxazol-2(3H)-one]",500 to 5000,> 1.5,500 to 5000,B (3≥B>2)
"O=C1c2ccccc2C(Cc2ncco2)N1Cc1ccc2[nH]c(=O)oc2c1 (centres unmarked) [Compound 150, 6-((1-(oxazol-2-ylmethyl)-3-oxoisoindolin-2-yl)methyl)benzo[d]oxazol-2(3H)-one]",5000 to 50000,> 1.5,≥ 5000,A (A>3)
"Cc1ccccc1CC1c2ncccc2C(=O)N1Cc1ccc2[nH]c(=O)oc2c1 (centres unmarked) [Compound 151, 6-((7-(2-methylbenzyl)-5-oxo-5,7-dihydro-6H-pyrrolo[3,4-b]pyridin-6-yl)methyl)benzo[d]oxazol-2(3H)-one]",500 to 5000,> 1.5,≥ 5000,A (A>3)
"Cc1ccnc(CC2c3ccccc3C(=O)N2Cc2ccc3[nH]c(=O)oc3c2)c1 (centres unmarked) [Compound 156, 6-((1-((4-methylpyridin-2-yl)methyl)-3-oxoisoindolin-2-yl)methyl)benzo[d]oxazol-2(3H)-one]",500 to 5000,> 1.5,≥ 5000,A (A>3)
"O=C1c2ccccc2C(Cc2ccccc2Cl)N1Cc1ccc2[nH]c(=O)oc2c1 (centres unmarked) [Compound 157, 6-((1-(2-chlorobenzyl)-3-oxoisoindolin-2-yl)methyl)benzo[d]oxazol-2(3H)-one]",500 to 5000,> 1.5,< 500,A (A>3)
"Cc1cccc(CC2c3ccccc3C(=O)N2Cc2ccc3[nH]c(=O)oc3c2)n1 (centres unmarked) [Compound 158, 6-((1-((6-methylpyridin-2-yl)methyl)-3-oxoisoindolin-2-yl)methyl)benzo[d]oxazol-2(3H)-one]",500 to 5000,> 1.5,≥ 5000,A (A>3)
"O=C1c2ccccc2C(Cc2ncccc2Cl)N1Cc1ccc2[nH]c(=O)oc2c1 (centres unmarked) [Compound 159, 6-((1-((3-chloropyridin-2-yl)methyl)-3-oxoisoindolin-2-yl)methyl)benzo[d]oxazol-2(3H)-one]",< 500,> 1.5,< 500,A (A>3)
"Cc1ccccc1CC1c2cccnc2C(=O)N1Cc1ccc2[nH]c(=O)oc2c1 (centres unmarked) [Compound 160, 6-((5-(2-methylbenzyl)-7-oxo-5,7-dihydro-6H-pyrrolo[3,4-b]pyridin-6-yl)methyl)benzo[d]oxazol-2(3H)-one]",500 to 5000,> 1.5,500 to 5000,B (3≥B>2)
"Cc1ccc(CC2c3ccccc3C(=O)N2Cc2ccc3[nH]c(=O)oc3c2)nc1 (centres unmarked) [Compound 161, 6-((1-((5-methylpyridin-2-yl)methyl)-3-oxoisoindolin-2-yl)methyl)benzo[d]oxazol-2(3H)-one]",500 to 5000,> 1.5,500 to 5000,A (A>3)
"Cc1ccc(C#N)c(CC2c3ccccc3C(=O)N2Cc2ccc3[nH]c(=O)oc3c2)c1 (centres unmarked) [Compound 164, 4-methyl-2-((3-oxo-2-((2-oxo-2,3-dihydrobenzo[d]oxazol-6-yl)methyl)isoindolin-1-yl)methyl)benzonitrile]",< 500,> 1.5,< 500,B (3≥B>2)
"CCOc1ccccc1CC1c2ccccc2C(=O)N1Cc1ccc2[nH]c(=O)oc2c1 (centres unmarked) [Compound 166, 6-((1-(2-ethoxybenzyl)-3-oxoisoindolin-2-yl)methyl)benzo[d]oxazol-2(3H)-one]",500 to 5000,1.2 to 1.5,500 to 5000,B (3≥B>2)
"O=C1c2ccccc2C(CC2CCCCC2)N1Cc1ccc2[nH]c(=O)oc2c1 (centres unmarked) [Compound 167, 6-((1-(cyclohexylmethyl)-3-oxoisoindolin-2-yl)methyl)benzo[d]oxazol-2(3H)-one]",500 to 5000,1.2 to 1.5,500 to 5000,B (3≥B>2)
"Cc1ccccc1CC1c2ccncc2C(=O)N1Cc1ccc2[nH]c(=O)oc2c1 (centres unmarked) [Compound 168, 6-((1-(2-methylbenzyl)-3-oxo-1,3-dihydro-2H-pyrrolo[3,4-c]pyridin-2-yl)methyl)benzo[d]oxazol-2(3H)-one]",500 to 5000,> 1.5,500 to 5000,A (A>3)
"N#Cc1ccccc1CC1c2ccccc2C(=O)N1Cc1ccc(O)cc1 (centres unmarked) [Compound 169, 2-((2-(4-hydroxybenzyl)-3-oxoisoindolin-1-yl)methyl)benzonitrile]",< 500,> 1.5,< 500,B (3≥B>2)
"N#Cc1cccc(F)c1CC1c2ccccc2C(=O)N1Cc1ccc2[nH]c(=O)oc2c1 (centres unmarked) [Compound 170, 3-fluoro-2-((3-oxo-2-((2-oxo-2,3-dihydrobenzo[d]oxazol-6-yl)methyl)isoindolin-1-yl)methyl)benzonitrile]",< 500,> 1.5,< 500,A (A>3)
"N#Cc1cccc(F)c1C[C@H]1c2ccccc2C(=O)N1Cc1ccc2[nH]c(=O)oc2c1 [Compound 172, (S)-3-fluoro-2-((3-oxo-2-((2-oxo-2,3-dihydrobenzo[d]oxazol-6-yl)methyl)isoindolin-1-yl)methyl)benzonitrile]",< 500,> 1.5,< 500,B (3≥B>2)
"N#CCc1ccccc1CC1c2ccccc2C(=O)N1Cc1ccc2[nH]c(=O)oc2c1 (centres unmarked) [Compound 173, 2-(2-((3-oxo-2-((2-oxo-2,3-dihydrobenzo[d]oxazol-6-yl)methyl)isoindolin-1-yl)methyl)phenyl)acetonitrile]",500 to 5000,> 1.5,500 to 5000,B (3≥B>2)

# Reference: patent US20260078130A1, “NAMPT MODULATORS, PREPARATIONS, AND USES THEREOF” (SIRONAX LTD., priority 2022, published 2026)
